Tests used:
[1] = test system: Caco-2 cell line; experiment: Anti-proliferative assay (MTS cell proliferation assay); assay type: cell-based, Human; conditions: for IC50: maximum tested concentration 200 μmol/L
Description: (§1) Human colon cancer Caco-2 and SW480 cell lines were cultured and grown as previously reported. […] Incubation was carried out for 24, 48 and 72 h. Data were compared with a control solution containing 0.5% DMSO in cell medium and representing 100% proliferation. In addition, six different mixes were prepared to simulate the simultaneous presence of parent phenolic compounds and metabolites by mimicking the possible human inter-individual variability in colon metabolism of phenolic compounds. Two sets of mixes were prepared to consider the colon metabolism of quercetins and chlorogenic acids. […] For each set of mixtures (QUE and CGA mixtures), three different mixes were formulated. One set of mixes mimicked the low-producers metabotype and contained 90% parent compounds and 10% metabolites (mixes QUE-LP and CGA-LP). Another set of mixes was prepared to simulate the high-producers metabotype and contained 10% parent compounds and 90% metabolites (mixes QUE-HP and CGA-HP). Finally, a third set of mixes was prepared with equimolar amounts of all the compounds (mixes QUE-EQ and CGA-EQ). […] Cell proliferation was assessed by the MTS assay as previously described. […] The IC50 values were calculated through non-linear regression analysis by plotting the base-10 logarithm of the phenolic compound concentration vs. the percentage of inhibition.

[2] = test system: SW480 cell line; experiment: as above; assay type: cell-based, Human; conditions: for IC50: maximum tested concentration 200 μmol/L
Description: as §1

[3] = test system: SW480 cell line; experiment: Cell metabolism of phenolic compounds (UHPLC-HR-MS analysis of cell media); assay type: in vitro ADME, Human; conditions: for Concentration of substrate in cell medium: initial 50 μmol/L
Description: (§2) To analyze the metabolism of phenolic compounds by Caco-2 and SW480 cells, the cell culture media were withdrawn after 0, 24, 48 and 72 h of incubation. Phenolic compounds were extracted from the culture media by following the procedure reported in Sala et al.. Briefly, 100 μL of cold methanol was mixed with 100 μL of cell media and vortexed for 1 min. The mixture was then centrifuged at 10,000× g (4 °C, 5 min) and the supernatant was injected, after appropriate dilution, in an ultra-high-performance liquid chromatography high-resolution mass spectrometry system (UHPLC-HR-MS).
(§3) The HR-MS system consisted of a UHPLC Ultimate 3000 separation module, equipped with a C18 column (Acquity UPLC HSS C18 reversed phase, 2.1 × 100 mm, 1.8 μm particle size, Waters, Milan, Italy) and coupled with a Q Exactive Hybrid Quadrupole-Orbitrap Mass Spectrometer (Thermo Scientific, San Jose, CA, USA). Mobile phases consisted of a mixture of water containing formic acid (0.1%) (mobile phase A) and acetonitrile containing formic acid (0.1%) (mobile phase B). The gradient began at 1% B, reaching 40% B over 20 min. To wash the column, the mobile phase B concentration was raised to 99% over 6 min and kept at 99% for 3 min before returning to the initial conditions. The MS and MS/MS conditions are fully described in Martini et al..
(§4) Quantification was carried out by building external calibration curves with the available standard compounds.

[4] = cited from earlier work; for Maximum value in human fecal water: after raspberry supplementation, ref 49 (Gill et al.)
[5] = Cell metabolism of phenolic compounds (UHPLC-HR-MS analysis of cell media); assay type: in vitro ADME, Human; conditions: human, SW480 cells; SW480, 72 h
Description: as §2, §3, §4

[6] = in vitro; assay type: in vitro ADME; conditions: human
Description: as §2, §3, §4

[7] = test system: Caco-2 cell line; experiment: in vitro; assay type: in vitro ADME; conditions: human; for Concentration of substrate in cell medium: 50 μmol/L
Description: as §2, §3, §4

[8] = test system: SW480 cells; experiment: Cell cycle analysis by flow cytometry; assay type: cell-based, Human; conditions: 72 h, concentration equal to the IC50 value, vs control
Description: Cell cycle analysis was carried out in both Caco-2 and SW480 cell lines as previously reported by Nicoletti et al.. Cells were seeded in 6-well plates at a density of 4000 and 8000 cells/cm^2 for Caco-2 and SW480, respectively.
After 72 h of incubation, the cells were washed with PBS, detached from the 6-well plates with 500 μL of trypsin and resuspended in 1000 μL of medium. Subsequently, they were centrifuged at 3500 rpm for 5 min. After removing the supernatant, the pellet was resuspended with 400 μL of Nicoletti’s solution (sodium citrate 0.1%, Triton X-100 0.1% and 20 μg/mL propidium iodide). After 15 min of incubation at 4 °C in the dark, cell cycle analysis was performed with an Epics XL MCL flow cytometer (Beckman Coulter, Brea, CA, USA).
The data were compared with a control solution containing 0.5% DMSO in the cell medium.

[9] = design: method as in PMID 33350133, doi:10.1002/fft2.50; conditions: of the ingested dose; cited from earlier work
[10] = Homo sapiens, Caco-2, 24 h of incubation
[11] = Homo sapiens, Caco-2, 48 h of incubation
[12] = Homo sapiens, Caco-2, 72 h of incubation
[13] = Homo sapiens, SW480, 48 h of incubation
[14] = Homo sapiens, SW480, 72 h of incubation
[15] = no dietary restriction or supplementation, ref 47 (Jenner et al.)

O=C(/C=C/c1ccc(O)c(O)c1)OC1CC(O)(C(=O)O)CC(OC(=O)/C=C/c2ccc(O)c(O)c2)C1O (stereo not shown) [3,5-di-O-Caffeoylquinic acid, 3,5-di-O-caffeoylquinic acid]
Inhibition of Caco-2 growth ([1]; 100 μmol/L, 72 h): almost complete inhibition
IC50 ([1]; Caco-2, 24 h of incubation): > 200 µM
IC50 ([1]; Caco-2, 48 h of incubation): 27.5 ± 1 µM
IC50 ([1]; Caco-2, 72 h of incubation): 8.8 ± 0.2 µM
Percentage of inhibition of SW480 growth ([2]; 100 μmol/L, 72 h): 10.9%
IC50 ([2]; SW480, 48 h of incubation): > 200 µM
IC50 ([2]; SW480, 72 h of incubation): > 200 µM
Concentration of substrate in cell medium ([3]; SW480, 24 h): 7.13 ± 0.13 µmol/L
Concentration of substrate in cell medium ([3]; SW480, 48 h): 5.41 ± 0.07 µmol/L
Concentration of substrate in cell medium ([3]; SW480, 72 h): 6.17 ± 0.05 µmol/L

O=C(O)Cc1ccc(O)c(O)c1 [3-(3′,4′-Dihydroxyphenyl)acetic acid, 3-(3′,4′-dihydroxyphenyl)acetic acid]
IC50 [1, 10]: 79.5 ± 1.4 µM
IC50 [1, 11]: 14.7 ± 0.8 µM
IC50 [1, 12]: 3 ± 0.1 µM
IC50 [2, 13]: > 200 µM
IC50 [2, 14]: 92.2 ± 6.9 µM
Concentration of substrate in cell medium ([3]; SW480, 24 h): 21.62 ± 0.48 µmol/L
Concentration of substrate in cell medium ([3]; SW480, 48 h): 15.84 ± 0.09 µmol/L
Concentration of substrate in cell medium ([3]; SW480, 72 h): 10.30 ± 0.36 µmol/L
Maximum value in human fecal water [4]: 442 µmol/L

O=C(O)Cc1cccc(O)c1 [3-(3′-Hydroxyphenyl)acetic acid, 3-(3′-hydroxyphenyl)acetic acid]
IC50 [1, 11]: > 200 µM
IC50 [1, 12]: > 200 µM
IC50 [2, 13]: > 200 µM
IC50 [2, 14]: 99.6 ± 4.8 µM
recovery at 72 h [5]: > 80%
Concentration of substrate in cell medium ([3]; SW480, 24 h): 42.23 ± 0.55 µmol/L
Concentration of substrate in cell medium ([3]; SW480, 48 h): 42.81 ± 0.10 µmol/L
Concentration of substrate in cell medium ([3]; SW480, 72 h): 39.28 ± 0.85 µmol/L
Maximum value in human fecal water [4]: 327 µmol/L
recovery at 72 h [6]: > 80%
Concentration of substrate in cell medium ([7]; 24 h): 48.83 ± 0.85 µmol/L
Concentration of substrate in cell medium ([7]; 48 h): 47.02 ± 0.39 µmol/L
Concentration of substrate in cell medium ([7]; 72 h): 43.17 ± 0.06 µmol/L

O=C(O)CCc1cccc(O)c1 [3-(3′-Hydroxyphenyl)propanoic acid, 3-(3′-hydroxyphenyl)propanoic acid]
IC50 [1, 10]: > 200 µM
IC50 [1, 11]: > 200 µM
IC50 [1, 12]: > 200 µM
inhibition at 100 µM ([2]; Homo sapiens, SW480, 100 μmol/L, 72 h, read-out: Percentage of inhibition of SW480 growth): 13.3%
IC50 [2, 14]: > 200 µM
recovery at 72 h [5]: > 80%
Concentration of substrate in cell medium ([3]; SW480, 24 h): 52.74 ± 0.44 µmol/L
Concentration of substrate in cell medium ([3]; SW480, 48 h): 50.70 ± 0.11 µmol/L
Concentration of substrate in cell medium ([3]; SW480, 72 h): 49.95 ± 0.37 µmol/L
Maximum value in human fecal water [4]: 1810 µmol/L
Concentration in human fecal water ([4]; no dietary restriction or supplementation, ref 46 (Karlsson et al.)): 61 ± 34 µmol/L
Mean concentration in human fecal water [4, 15]: 68 ± 93 µmol/L
Range of concentration in human fecal water [4, 15]: 0.72 to 209 µmol/L
recovery at 72 h [6]: > 80%
Concentration of substrate in cell medium ([7]; 24 h): 45.51 ± 0.41 µmol/L
Concentration of substrate in cell medium ([7]; 48 h): 46.27 ± 0.58 µmol/L
Concentration of substrate in cell medium ([7]; 72 h): 46.28 ± 0.76 µmol/L

O=C(/C=C/c1ccc(O)c(O)c1)O[C@@H]1C[C@](O)(C(=O)O)C[C@@H](O)[C@H]1O [5-O-Caffeoylquinic acid, 5-O-caffeoylquinic acid]
Percentage of inhibition of SW480 growth ([2]; 100 μmol/L, 72 h): 14.7%
IC50 ([2]; SW480, 48 h of incubation): > 200 µM
IC50 ([2]; SW480, 72 h of incubation): > 200 µM
Concentration of substrate in cell medium ([3]; SW480, 24 h, listed as 5-O-Caffeoylquinic acid trans): 16.76 ± 0.01 µmol/L
Concentration of newly formed metabolite ([3]; SW480, 24 h, substrate 3,5-di-O-Caffeoylquinic acid 50 μmol/L, listed as 5-O-Caffeoylquinic acid trans): 0.08 ± 0.01 µmol/L
Concentration of newly formed metabolite ([3]; SW480, 24 h, substrate 3-O-Caffeoylquinic acid trans 50 μmol/L, listed as 5-O-Caffeoylquinic acid trans): 4.95 ± 0.04 µmol/L
Concentration of substrate in cell medium ([3]; SW480, 48 h, listed as 5-O-Caffeoylquinic acid trans): 17.52 ± 0.08 µmol/L
Concentration of newly formed metabolite ([3]; SW480, 48 h, substrate 3-O-Caffeoylquinic acid trans 50 μmol/L, listed as 5-O-Caffeoylquinic acid trans): 7.37 ± 0.07 µmol/L
Concentration of substrate in cell medium ([3]; SW480, 72 h, listed as 5-O-Caffeoylquinic acid trans): 13.96 ± 0.03 µmol/L
Concentration of newly formed metabolite ([3]; SW480, 72 h, substrate 3,5-di-O-Caffeoylquinic acid 50 μmol/L, listed as 5-O-Caffeoylquinic acid trans): 0.29 ± 0.01 µmol/L
Concentration of newly formed metabolite ([3]; SW480, 72 h, substrate 3-O-Caffeoylquinic acid trans 50 μmol/L, listed as 5-O-Caffeoylquinic acid trans): 11.32 ± 0.43 µmol/L

O=c1c(O)c(-c2ccc(O)c(O)c2)oc2cc(O)cc(O)c12 [Quercetin, quercetin]
IC50 [1, 11]: > 200 µM
IC50 [1, 12]: 116 ± 4.9 µM
IC50 [2, 13]: 89.2 ± 3.1 µM
IC50 [2, 14]: 58.2 ± 2.7 µM
Decrease in IC50 value from 48 to 72 h ([2]; SW480): 1.5 fold
Concentration of substrate in cell medium ([3]; SW480, 24 h): 47.39 ± 1.22 µmol/L
Concentration of newly formed metabolite ([3]; SW480, 24 h, substrate Quercetin-4′-O-glucoside 50 μmol/L): 52.70 ± 2.24 µmol/L
Concentration of substrate in cell medium ([3]; SW480, 48 h): 40.37 ± 1.20 µmol/L
Concentration of newly formed metabolite ([3]; SW480, 48 h, substrate Quercetin-3-O-glucoside-4′-O-glucoside 50 μmol/L): 0.04 ± 0.00 µmol/L
Concentration of newly formed metabolite ([3]; SW480, 48 h, substrate Quercetin-4′-O-glucoside 50 μmol/L): 36.89 ± 0.52 µmol/L
Concentration of substrate in cell medium ([3]; SW480, 72 h): 14.83 ± 0.84 µmol/L
Concentration of newly formed metabolite ([3]; SW480, 72 h, substrate Quercetin-3-O-glucoside-4′-O-glucoside 50 μmol/L): 0.07 ± 0.00 µmol/L
Concentration of newly formed metabolite ([3]; SW480, 72 h, substrate Quercetin-4′-O-glucoside 50 μmol/L): 12.78 ± 0.41 µmol/L
Increase in the number of SW480 cells in the S phase [8]: 3.1 times
Decrease in cell medium concentration ([7]; 24 h): 99.5%
Concentration of substrate in cell medium ([7]; 24 h): 0.61 ± 0.01 µmol/L
Concentration of substrate in cell medium ([7]; 48 h): 0.29 ± 0.01 µmol/L
Concentration of substrate in cell medium ([7]; 72 h): 0.52 ± 0.02 µmol/L
Absorption in the small intestine [9]: about 20%

O=c1c(O)c(-c2ccc(O[C@@H]3O[C@H](CO)[C@@H](O)[C@H](O)[C@H]3O)c(O)c2)oc2cc(O)cc(O)c12 [Quercetin-4′-O-glucoside, quercetin-4′-O-glucoside]
IC50 ([1]; Caco-2, 48 h of incubation): > 200 µM
IC50 ([1]; Caco-2, 72 h of incubation): > 200 µM
Decrease in IC50 value from 48 to 72 h ([2]; SW480): 1.4 fold
IC50 ([2]; SW480, 48 h of incubation): 144 ± 6.6 µM
IC50 ([2]; SW480, 72 h of incubation): 102 ± 5.3 µM
Concentration of substrate in cell medium ([3]; SW480, 24 h): 2.98 ± 0.07 µmol/L
Concentration of substrate in cell medium ([3]; SW480, 48 h): 0.07 ± 0.00 µmol/L
Concentration of substrate in cell medium ([3]; SW480, 72 h): 0.01 ± 0.00 µmol/L
Increase in the number of SW480 cells in the S phase [8]: 2.5 times

Source: publication PMC10418599, “Quercetins, Chlorogenic Acids and Their Colon Metabolites Inhibit Colon Cancer Cell Proliferation at Physiologically Relevant Concentrations” (International Journal of Molecular Sciences, 2023)
